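In this assay, cells in 96-well plates receive the compound at five concentrations for 48 hours. Endpoints are linearly interpolated between the surrounding concentrations. At the TGI there is no net growth.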
Assays:
Assay in all cases: NCI tumour cell line growth inhibition, 48 h
CCRF-CEM leukemia = test system: CCRF-CEM leukemia
DLD-1 colon = test system: DLD-1 colon
DMS 114 small cell lung = test system: DMS 114 small cell lung
DMS 273 small cell lung = test system: DMS 273 small cell lung
EKVX NSCLC = test system: EKVX NSCLC
KM20L2 colon = test system: KM20L2 colon
LXFL 529 NSCLC = test system: LXFL 529 NSCLC
M19-MEL melanoma = test system: M19-MEL melanoma
OVCAR-3 ovarian = test system: OVCAR-3 ovarian
OVCAR-5 ovarian = test system: OVCAR-5 ovarian
SF-539 CNS = test system: SF-539 CNS
SNB-78 CNS = test system: SNB-78 CNS
UACC-257 melanoma = test system: UACC-257 melanoma
UACC-62 melanoma = test system: UACC-62 melanoma
XF 498 CNS = test system: XF 498 CNS
HOP-18 NSCLC = test system: HOP-18 NSCLC
RXF-631 renal = test system: RXF-631 renal

SMILES | TGI (CCRF-CEM leukemia) [µM] | TGI (DLD-1 colon) [µM] | TGI (DMS 114 small cell lung) [µM] | TGI (DMS 273 small cell lung) [µM] | TGI (EKVX NSCLC) [µM] | TGI (KM20L2 colon) [µM] | TGI (LXFL 529 NSCLC) [µM] | TGI (M19-MEL melanoma) [µM] | TGI (OVCAR-3 ovarian) [µM] | TGI (OVCAR-5 ovarian) [µM] | TGI (SF-539 CNS) [µM] | TGI (SNB-78 CNS) [µM] | TGI (UACC-257 melanoma) [µM] | TGI (UACC-62 melanoma) [µM] | TGI (XF 498 CNS) [µM] | TGI (HOP-18 NSCLC) [µM] | TGI (RXF-631 renal) [µM]
Cc1ccc(C(=O)C(c2nc3n(c2O)C(=N)N=N3)c2nc3n(c2O)C(=N)N=N3)cc1 (configuration not stated) | > 100 | > 100 | > 100 | > 100 | > 100 | > 100 | > 100 | > 100 | > 100 | > 100 | > 100 | > 100 | > 100 | > 100 | > 100 | – | –
Cc1ccc(NC(=O)CCc2nnc3s/c(=C\c4cccc([N+](=O)[O-])c4)c(=O)n23)cc1 | > 100 | > 100 | > 100 | > 100 | > 100 | > 100 | > 100 | > 100 | > 100 | > 100 | > 100 | > 100 | > 100 | > 100 | > 100 | > 100 | > 100
COc1cccc(N2C(=O)/C(=C/c3ccc(N(CCC#N)CCC#N)cc3)N=C2c2cc([N+](=O)[O-])ccc2Cl)c1 | > 100 | > 100 | > 100 | > 100 | – | > 100 | > 100 | – | > 100 | > 100 | > 100 | > 100 | > 100 | > 100 | – | > 100 | > 100
O=S1(=O)OCCOS(=O)(=O)C1(Cl)Cl | > 100 | > 100 | > 100 | > 100 | > 100 | – | > 100 | > 100 | > 100 | – | > 100 | > 100 | > 100 | > 100 | > 100 | – | > 100
O=C1C(Cl)=C(N2CCN(CCOCCO)CC2)C(=O)c2ccccc21 | 7.27 | – | – | 31.2 | 32.3 | 32.2 | 3.37 | 14.6 | 9.44 | 37.4 | 33.1 | 32.3 | 15.7 | 13.7 | 5.81 | 29.9 | –
CC(C)COC(=O)c1ccc(N=Cc2ccc(C=Nc3ccc(C(=O)OCC(C)C)cc3)cc2)cc1 | – | > 100 | – | > 100 | – | > 100 | > 100 | > 100 | > 100 | > 100 | > 100 | > 100 | > 100 | > 100 | > 100 | – | > 100
O=C(CC(=O)N1N=C(n2ccc3ccccc32)CC1c1ccccc1)Nc1ccc(Cl)cc1 (configuration not stated) | > 100 | > 100 | > 100 | > 100 | > 100 | > 100 | > 100 | > 100 | > 100 | > 100 | > 100 | > 100 | > 100 | > 100 | – | > 100 | > 100
CC(=O)NNc1nc(C)c(C(/C=C/c2ccc(Cl)cc2)=N\N=C(N)N)s1 | > 100 | > 100 | – | > 100 | – | > 100 | > 100 | > 100 | > 100 | > 100 | > 100 | > 100 | > 100 | > 100 | > 100 | – | > 100

— PubChem BioAssay (NCI)
